Literature values as cited in US11730740B2, “Laureth-4 containing topical formulations” (ARCUTIS BIOTHERAPEUTICS, INC., priority 2020, dated 2023).

Experiments:
[1] = 10% w/w surfactant in white petrolatum with 10% salicylic acid and 10% DMSO; 5.0 grams on 6.4×12.7 cm^2 skin; 8 hr
[2] = 10% adjuvant in propylene glycol; infinite dosing 278 μl/cm^2; PG alone control 1.6±0.4
JAK 1 = JAK 1 (Homo sapiens, UniProt P23458); conditions: statement in words
Chain of JAK 1 (P23458 whole entry, species assumed): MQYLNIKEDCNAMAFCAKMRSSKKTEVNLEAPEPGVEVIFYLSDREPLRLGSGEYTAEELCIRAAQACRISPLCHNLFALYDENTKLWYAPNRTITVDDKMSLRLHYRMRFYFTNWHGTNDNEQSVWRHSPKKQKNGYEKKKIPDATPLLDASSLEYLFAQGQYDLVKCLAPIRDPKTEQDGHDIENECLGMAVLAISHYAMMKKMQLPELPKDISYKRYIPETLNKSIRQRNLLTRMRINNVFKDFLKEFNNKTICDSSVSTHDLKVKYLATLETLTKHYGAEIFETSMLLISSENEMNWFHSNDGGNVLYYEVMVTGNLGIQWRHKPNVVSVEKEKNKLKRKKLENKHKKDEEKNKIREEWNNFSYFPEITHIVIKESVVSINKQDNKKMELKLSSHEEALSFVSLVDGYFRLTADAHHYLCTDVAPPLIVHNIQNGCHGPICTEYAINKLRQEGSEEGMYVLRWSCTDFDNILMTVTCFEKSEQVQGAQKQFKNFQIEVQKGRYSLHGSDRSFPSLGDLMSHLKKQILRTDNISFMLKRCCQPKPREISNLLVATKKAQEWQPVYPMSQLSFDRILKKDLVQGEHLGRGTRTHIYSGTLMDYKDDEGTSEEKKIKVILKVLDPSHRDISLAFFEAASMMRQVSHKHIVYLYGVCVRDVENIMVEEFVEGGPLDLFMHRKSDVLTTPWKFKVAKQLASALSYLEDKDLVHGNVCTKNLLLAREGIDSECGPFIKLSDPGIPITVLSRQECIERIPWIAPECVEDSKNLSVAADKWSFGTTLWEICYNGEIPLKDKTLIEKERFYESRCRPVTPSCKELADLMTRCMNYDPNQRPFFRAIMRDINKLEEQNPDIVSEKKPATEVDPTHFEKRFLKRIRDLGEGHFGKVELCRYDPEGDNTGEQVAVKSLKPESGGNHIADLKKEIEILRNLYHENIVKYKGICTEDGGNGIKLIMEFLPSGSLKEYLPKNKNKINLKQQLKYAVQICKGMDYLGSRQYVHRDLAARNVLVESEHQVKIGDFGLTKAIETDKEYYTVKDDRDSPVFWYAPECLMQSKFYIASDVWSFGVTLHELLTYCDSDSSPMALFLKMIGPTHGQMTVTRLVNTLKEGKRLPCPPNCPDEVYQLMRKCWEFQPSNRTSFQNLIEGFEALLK

naloxone flux [2] [μg/cm^2-hr]	Compound	also measured
187.9±67.5	CCCCCCCCCC(=O)O [capric acid]	
103.0	CC/C=C\C/C=C\C/C=C\CCCCCCCC(=O)O [linolenic acid 18:2, linolenic acid]	
235.2	CCCCCCCCCCCC(=O)O [lauric acid]	

More lines, now with the values behind:

Compound	naloxone flux [2] [μg/cm^2-hr]	also measured
polyoxyethylene 2 oleyl ether		percutaneous absorption of salicylic acid [1]: increased significantly
sorbitan trioleate		percutaneous absorption of salicylic acid [1]: increased significantly
CCCCCCCCC(=O)O [pelargonic acid]	201.9±65.4	
CCCCCCCCCCCCOCCOCCOCCOCCO [laureth-4, tetraethylene glycol monododecyl ether]	34.5±8.3	percutaneous absorption of salicylic acid [1]: increased significantly
CC1=C(/C=C/C(C)=C/C=C/C(C)=C/C(=O)O)C(C)(C)CCC1 [tretinoin]		solubility of tretinoin in VELTIN Gel (with laureth-4 (3%) and propylene glycol): 0.025%
COc1nsc(NC(=O)N2C[C@H]3C[C@H](N(C)c4ncnc5[nH]ccc45)C[C@H]3C2)n1 [SHR0302, (3 aR,5 S,6aS)—N-(3-methoxyl-1,2,4-thiadiazol-5-yl)-5-(methyl(7H-pyrrolo[2,3-d]pyrimidin-4-yl)amino)hexahydrocyclopenta[c]pyrrole-2(1H)-carboxamide]		inhibition of JAK 1 (JAK 1): potent; selectivity for JAK1 over JAK2 (JAK 1): high
CC/C=C\C/C=C\C/C=C\CCCCCCCCO [linolenyl alcohol]	116.3	
CCC[C@@H]1C[C@@H](C(=O)N[C@@H]([C@H]2O[C@H](SC)[C@H](OP(=O)(O)O)[C@@H](O)[C@H]2O)[C@H](C)Cl)N(C)C1 [Clindamycin phosphate]		solubility in water (without the addition of laureth-4): readily soluble
sorbitan monopalmitate		percutaneous absorption of salicylic acid [1]: increased significantly
CCCCCCCCCCCCO [lauryl alcohol]	45.8	
propylene glycol laurate	43.8±5.5	
